From PubChem BioAssay AID330 (DTP/NCI, 2004)
Several values for one entry are separate records, joined by “and”; a condition that tells them apart may be missing. Equal entries are not always repeated. Toxic doses and inconclusive results are not listed.

Tested on: P388 leukemia ip, CD2F1 mice, survival T/C
Experiment: NCI In Vivo Anticancer Drug Screen. Data for tumor model P388 Leukemia (intraperitoneal) in CD2F1 (CDF1) mice
Settings: endpoint: median survival time, higher = longer survival
How it was run: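 Mice carrying the transplanted tumor received test compound or vehicle. Survival was recorded in each group, and the value is the treated-group measurement divided by that of the vehicle-treated control group.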

[1] = dose: 50.0 mg/kg/injection, schedule: Q01DX009 (ip), vehicle: Klucel (hydroxypropylcellulose) (HPC)
[2] = dose: 100.0 mg/kg/injection, schedule: Q01DX009 (ip), vehicle: Klucel (hydroxypropylcellulose) (HPC)
[3] = dose: 200.0 mg/kg/injection, schedule: Q01DX009 (ip), vehicle: Klucel (hydroxypropylcellulose) (HPC)
[4] = dose: 60.0 mg/kg/injection, schedule: Q01DX005 (ip), vehicle: saline with Tween-80
[5] = dose: 120.0 mg/kg/injection, schedule: Q01DX005 (ip), vehicle: saline with Tween-80
[6] = dose: 240.0 mg/kg/injection, schedule: Q01DX005 (ip), vehicle: saline with Tween-80
[7] = dose: 25.0 mg/kg/injection, schedule: Q01DX009 (ip), vehicle: Klucel (hydroxypropylcellulose) (HPC)
[8] = dose: 60.0 mg/kg/injection, schedule: Q01DX005 (ip), vehicle: saline
[9] = dose: 120.0 mg/kg/injection, schedule: Q01DX005 (ip), vehicle: saline
[10] = dose: 240.0 mg/kg/injection, schedule: Q01DX005 (ip), vehicle: saline
[11] = dose: 25.0 mg/kg/injection, schedule: Q01DX005 (ip), vehicle: Klucel (hydroxypropylcellulose) (HPC)
[12] = dose: 50.0 mg/kg/injection, schedule: Q01DX005 (ip), vehicle: Klucel (hydroxypropylcellulose) (HPC)
[13] = dose: 100.0 mg/kg/injection, schedule: Q01DX005 (ip), vehicle: Klucel (hydroxypropylcellulose) (HPC)
[14] = dose: 200.0 mg/kg/injection, schedule: Q01DX005 (ip), vehicle: Klucel (hydroxypropylcellulose) (HPC)
[15] = dose: 12.5 mg/kg/injection, schedule: Q01DX009 (ip), vehicle: saline with Tween-80
[16] = dose: 25.0 mg/kg/injection, schedule: Q01DX009 (ip), vehicle: saline with Tween-80
[17] = dose: 50.0 mg/kg/injection, schedule: Q01DX009 (ip), vehicle: saline with Tween-80
[18] = dose: 50.0 mg/kg/injection, schedule: Q01DX009 (ip), vehicle: saline
[19] = dose: 100.0 mg/kg/injection, schedule: Q01DX009 (ip), vehicle: saline
[20] = dose: 200.0 mg/kg/injection, schedule: Q01DX009 (ip), vehicle: saline
[21] = dose: 100.0 mg/kg/injection, schedule: Q01DX009 (ip), vehicle: saline with Tween-80
[22] = dose: 200.0 mg/kg/injection, schedule: Q01DX009 (ip), vehicle: saline with Tween-80

Cc1nc2ccccc2c(=O)o1
T/C [1]: 97 % of control | T/C [2]: 98 % of control | T/C (dose: 100.0 mg/kg/injection, schedule: Q04DX002 (ip), vehicle: Klucel (hydroxypropylcellulose) (HPC)): 105 % of control | T/C [3]: 90 % of control | T/C (dose: 200.0 mg/kg/injection, schedule: Q04DX002 (ip), vehicle: Klucel (hydroxypropylcellulose) (HPC)): 107 % of control | T/C (dose: 400.0 mg/kg/injection, schedule: Q04DX002 (ip), vehicle: Klucel (hydroxypropylcellulose) (HPC)): 100 % of control

CC1=CC(=O)CCC12CCOC2=O (configuration not stated)
T/C [4]: 104 % of control | T/C [5]: 101 % of control | T/C [6]: 101 % of control

CC1=CC2(C)C3C(=O)NC(=O)C3C1C1(C)C3C(=O)NC(=O)C3C21 (configuration not stated)
T/C [7]: 103 % of control | T/C [1]: 108 % of control | T/C [2]: 109 % of control | T/C [3]: 97 % of control

C[N+](C)(C)NP(=O)(N[N+](C)(C)C)Oc1ccccc1
T/C [8]: 100 % of control and 110 % of control and 93 % of control | T/C [9]: 103 % of control and 110 % of control (2×) | T/C [10]: 100 % of control and 104 % of control | T/C (dose: 480.0 mg/kg/injection, schedule: Q01DX005 (ip), vehicle: saline): 104 % of control and 95 % of control

C=C(C)C1Cc2cc(C(C)=O)c(O)c(OC)c2O1 (configuration not stated)
T/C [11]: 101 % of control | T/C [12]: 108 % of control | T/C [13]: 97 % of control | T/C [14]: 99 % of control

COc1ccccc1OCC(=O)c1ccccc1
T/C (dose: 10.0 mg/kg/injection, schedule: Q01DX005 (ip), vehicle: Klucel (hydroxypropylcellulose) (HPC)): 102 % of control | T/C (dose: 20.0 mg/kg/injection, schedule: Q01DX005 (ip), vehicle: Klucel (hydroxypropylcellulose) (HPC)): 96 % of control | T/C (dose: 40.0 mg/kg/injection, schedule: Q01DX005 (ip), vehicle: Klucel (hydroxypropylcellulose) (HPC)): 100 % of control

COc1cc[n+](CCc2c[nH]c3ccccc23)cc1
T/C [15]: 109 % of control | T/C [16]: 104 % of control | T/C [17]: 113 % of control

CC1(C)N2c3ccc(Cl)cc3C(c3ccccc3)N1c1ccc(Cl)cc1C2c1ccccc1 (configuration not stated)
T/C [1]: 98 % of control | T/C [2]: 95 % of control | T/C [3]: 95 % of control

CCCCS(=O)(=O)N/N=C/C(=O)O
T/C (dose: 6.25 mg/kg/injection, schedule: Q01DX009 (ip), vehicle: water): 119 % of control | T/C (dose: 12.5 mg/kg/injection, schedule: Q01DX009 (ip), vehicle: water): 124 % of control | T/C (dose: 50.0 mg/kg/injection, schedule: Q01DX009 (ip), vehicle: water): 162 % of control | T/C (dose: 100.0 mg/kg/injection, schedule: Q01DX009 (ip), vehicle: water): 173 % of control

CC(=O)OCC1OC(n2cnc3c(Cl)nc(N)nc32)C(OC(C)=O)C1OC(C)=O (configuration not stated)
T/C [11]: 101 % of control | T/C [12]: 101 % of control | T/C [13]: 108 % of control | T/C [14]: 105 % of control

O=C([O-])[O-].O=S(=O)(O)O.[Co+3].[NH-]CC[NH-].[NH-]CC[NH-]
T/C [18]: 90 % of control | T/C [19]: 93 % of control | T/C [20]: 94 % of control

OCC(Cl)Cc1cnc[nH]1 (configuration not stated)
T/C [17]: 102 % of control | T/C [21]: 99 % of control | T/C [22]: 93 % of control

COC(=O)/C=C/c1c2ccccc2cc2ccccc12
T/C [4]: 96 % of control | T/C [5]: 96 % of control | T/C [6]: 90 % of control

NC(=O)c1ccc[n+](Cc2ccccc2)c1
T/C (dose: 12.5 mg/kg/injection, schedule: Q01DX009 (ip), vehicle: Klucel (hydroxypropylcellulose) (HPC)): 110 % of control | T/C [7]: 91 % of control | T/C [1]: 112 % of control | T/C [2]: 93 % of control

C=CC(C)(C)C1=CC(=O)C(OC)=CC1=O
T/C [12]: 100 % of control | T/C [13]: 103 % of control | T/C [14]: 100 % of control

CCCCC(CC)COCC(O)Cn1cnc2c(N)ncnc21 (configuration not stated)
T/C [12]: 104 % of control | T/C [13]: 97 % of control | T/C [14]: 91 % of control

CC1(C)CC(OS(=O)(=O)c2ccccc2)CC(C)(C)N1O
T/C (dose: 100.0 mg/kg/injection, schedule: Q01DX001 (ip), vehicle: Klucel (hydroxypropylcellulose) (HPC)): 97 % of control | T/C (dose: 200.0 mg/kg/injection, schedule: Q01DX001 (ip), vehicle: Klucel (hydroxypropylcellulose) (HPC)): 97 % of control | T/C (dose: 400.0 mg/kg/injection, schedule: Q01DX001 (ip), vehicle: Klucel (hydroxypropylcellulose) (HPC)): 97 % of control

CCCCCC12OCC(C)(C)N1O2 (configuration not stated)
T/C [8]: 100 % of control | T/C [9]: 109 % of control | T/C [10]: 103 % of control

CN(CCCCC1CCCN(C(=O)c2ccccc2)C1)C(=O)c1ccccc1 (configuration not stated)
T/C (dose: 12.5 mg/kg/injection, schedule: Q01DX005 (ip), vehicle: Klucel (hydroxypropylcellulose) (HPC)): 96 % of control | T/C [11]: 94 % of control | T/C [12]: 103 % of control and 97 % of control

C[N+]1=C(/C=C/Nc2ccc3c4c(cccc24)-c2ccccc2-3)C(C)(C)c2ccccc21
T/C [17]: 108 % of control | T/C [21]: 105 % of control | T/C [22]: 118 % of control

O=C(O)CN(CCN1CC(=O)OC(=O)C1)CCN1CC(=O)OC(=O)C1
T/C [8]: 102 % of control | T/C [9]: 97 % of control

N#CCc1noc2ccccc12
T/C [15]: 103 % of control | T/C [16]: 109 % of control

CN(C)CCN(C)CC(C)(C)C(=O)/C=C/c1ccc(Cl)c(Cl)c1
T/C (dose: 3.75 mg/kg/injection, schedule: Q01DX005 (ip), vehicle: saline): 102 % of control and 107 % of control | T/C (dose: 7.5 mg/kg/injection, schedule: Q01DX005 (ip), vehicle: saline): 98 % of control and 95 % of control | T/C (dose: 15.0 mg/kg/injection, schedule: Q01DX005 (ip), vehicle: saline): 99 % of control and 100 % of control and 97 % of control | T/C (dose: 30.0 mg/kg/injection, schedule: Q01DX005 (ip), vehicle: saline): 101 % of control and 102 % of control

CC(=O)C(=Cc1ccc(O)cc1)C(C)=O
T/C (dose: 50.0 mg/kg/injection, schedule: Q01DX005 (ip), vehicle: saline with Tween-80): 100 % of control | T/C (dose: 100.0 mg/kg/injection, schedule: Q01DX005 (ip), vehicle: saline with Tween-80): 103 % of control | T/C (dose: 200.0 mg/kg/injection, schedule: Q01DX005 (ip), vehicle: saline with Tween-80): 103 % of control

O=[N+]([O-])c1c(Sc2ncccn2)ncnc1Sc1ncccn1
T/C (dose: 3.12 mg/kg/injection, schedule: Q01DX009 (ip), vehicle: saline with Tween-80): 105 % of control | T/C (dose: 6.25 mg/kg/injection, schedule: Q01DX009 (ip), vehicle: saline with Tween-80): 115 % of control | T/C [15]: 113 % of control | T/C (dose: 12.5 mg/kg/injection, schedule: Q01DX009 (ip), vehicle: saline): 114 % of control | T/C (dose: 25.0 mg/kg/injection, schedule: Q01DX009 (ip), vehicle: saline): 114 % of control | T/C [18]: 108 % of control

NC(=S)NC(=O)c1cccs1
T/C [17]: 95 % of control | T/C [21]: 94 % of control | T/C [22]: 93 % of control

O=C(O)COC(=O)c1ccc([N+](=O)[O-])cc1
T/C (dose: 100.0 mg/kg/injection, schedule: Q04DX003 (ip), vehicle: Klucel (hydroxypropylcellulose) (HPC)): 99 % of control | T/C (dose: 200.0 mg/kg/injection, schedule: Q04DX003 (ip), vehicle: Klucel (hydroxypropylcellulose) (HPC)): 108 % of control | T/C (dose: 400.0 mg/kg/injection, schedule: Q04DX003 (ip), vehicle: Klucel (hydroxypropylcellulose) (HPC)): 100 % of control

CC(=O)OC1CC2C3(C)CCC4C(C)(C)CCCC4(C)C3CC(O)C2(C)C2C1=COC2OC(C)=O (configuration not stated)
T/C (dose: 15.0 mg/kg/injection, schedule: Q01DX005 (ip), vehicle: Klucel (hydroxypropylcellulose) (HPC)): 102 % of control | T/C (dose: 30.0 mg/kg/injection, schedule: Q01DX005 (ip), vehicle: Klucel (hydroxypropylcellulose) (HPC)): 120 % of control

N=C1N=Nc2nc(C(C(=O)c3ccc(O)cc3O)c3nc4n(c3O)C(=N)N=N4)c(O)n21 (configuration not stated)
T/C [4]: 100 % of control | T/C [5]: 104 % of control | T/C [6]: 103 % of control

COCCCN(Cc1cc(OC)c(OC)c(OC)c1)C(=S)Nc1cccc(SC)c1
T/C [18]: 101 % of control | T/C [19]: 100 % of control | T/C [20]: 99 % of control

O=[N+]([O-])c1cnc2n(O)cccc1-2
T/C (dose: 100.0 mg/kg/injection, schedule: Q01DX001 (ip), vehicle: saline with Tween-80): 90 % of control | T/C (dose: 200.0 mg/kg/injection, schedule: Q01DX001 (ip), vehicle: saline with Tween-80): 87 % of control
